The numbers were not newly measured in patent US7560455B2, “3-Amino-4-phenylbutanoic acid derivatives as dipeptidyl peptidase inhibitors for the treatment or prevention of diabetes” (Merck & Co., Inc., priority 2003, dated 2009), which cites them from elsewhere.

The subject of one series is cardiac allograft. Particulars: rats; doubled from day 7 to day 14.
For another series, the system named is hematopoiesis. Particulars: mouse, cyclophosphamide-induced neutropenia.
The next series addresses T1, DP-IV (Homo sapiens, UniProt P27487).
T1 construct: GRF is rapidly degraded in plasma to GRF[3-44]

T1 sequence (P27487 whole entry): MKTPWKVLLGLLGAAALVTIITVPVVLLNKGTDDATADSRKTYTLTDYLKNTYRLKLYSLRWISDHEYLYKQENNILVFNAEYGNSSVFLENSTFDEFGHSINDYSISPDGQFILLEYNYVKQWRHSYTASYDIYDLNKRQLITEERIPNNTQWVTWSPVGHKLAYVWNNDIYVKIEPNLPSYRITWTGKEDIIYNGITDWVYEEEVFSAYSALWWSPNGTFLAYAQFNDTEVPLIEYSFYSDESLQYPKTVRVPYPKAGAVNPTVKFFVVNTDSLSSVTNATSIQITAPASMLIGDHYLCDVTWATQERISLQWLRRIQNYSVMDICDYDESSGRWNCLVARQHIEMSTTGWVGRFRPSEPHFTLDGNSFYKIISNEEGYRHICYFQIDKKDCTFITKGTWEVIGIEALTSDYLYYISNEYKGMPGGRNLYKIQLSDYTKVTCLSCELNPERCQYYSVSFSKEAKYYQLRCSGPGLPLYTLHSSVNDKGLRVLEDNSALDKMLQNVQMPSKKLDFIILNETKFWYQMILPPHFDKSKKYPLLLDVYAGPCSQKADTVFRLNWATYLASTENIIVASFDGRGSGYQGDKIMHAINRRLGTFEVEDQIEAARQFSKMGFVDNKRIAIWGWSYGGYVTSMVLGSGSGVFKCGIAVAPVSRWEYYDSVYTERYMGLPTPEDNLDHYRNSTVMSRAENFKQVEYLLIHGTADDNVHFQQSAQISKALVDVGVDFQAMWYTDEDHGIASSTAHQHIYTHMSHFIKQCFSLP

In the case of `CC(C)N1CCC(c2ccccc2)(c2ccccc2)CC1` [Prodipine, Pro-Pro-diphenyl-phosphonate], the cardiac allograft survival with cardiac allograft was 14 day.

Consider `CC(C)[C@H](N)C(=O)N1CCC[C@H]1B(O)O` [Val-Boro-Pro], for which the effect on hematopoiesis entry in the series with hematopoiesis was “stimulated hematopoiesis”.

Consider diprotin A, for which the “effect on degradation of GRF in plasma to GRF[3-44]” value at DP-IV is “prevented”.
